Measured values: article PMC7587356, “High-Throughput Screening for Inhibitors of the SARS-CoV-2 Protease Using a FRET-Biosensor” (Molecules, 2020)
Counter-ions that a name gives are not always drawn. Like-named read-outs stand apart in the source and are kept apart here.

Target: SARS-CoV-2 3CLpro (Severe acute respiratory syndrome coronavirus 2, UniProt P0DTD1)
Test: biochemical
Format: biochemical
Parameters: Replicate_1 / Replicate_2 / mean / mean (LOPAC_screen_w_protease): unit not given here
Conditions: for inhibition at 5 µM: 4 h
[1] = sheet LOPAC_screen_w_protease, primary screen with protease, 5 µM, mean of two replicates
[2] = sheet LOPAC_screen_w_protease, primary screen with protease, 5 µM, replicate 1
[3] = sheet LOPAC_screen_w_protease, primary screen with protease, 5 µM, replicate 2
[4] = LOPAC1280 primary screen with protease, 5 µM compound, replicate 1, read-out: Replicate_1 (LOPAC_screen_w_protease)
[5] = LOPAC1280 primary screen with protease, 5 µM compound, replicate 2, read-out: Replicate_2 (LOPAC_screen_w_protease)
[6] = LOPAC1280 primary screen with protease, 5 µM compound, mean of two replicates
[7] = LOPAC1280 primary screen with protease, 5 µM compound, mean of the two replicates
[8] = sheet LOPAC_screen_w_protease, LOPAC1280 primary screen with protease, 5 µM compound, mean of the two replicates
[9] = sheet LOPAC_screen_w_protease, LOPAC1280 primary screen with protease, 5 µM compound, replicate 1
[10] = sheet LOPAC_screen_w_protease, LOPAC1280 primary screen with protease, 5 µM compound, replicate 2
[11] = sheet LOPAC_screen_w_protease, primary screen with protease, compound at 5 µM, mean of two replicates
[12] = sheet LOPAC_screen_w_protease, primary screen with protease, compound at 5 µM, replicate 1
[13] = sheet LOPAC_screen_w_protease, primary screen with protease, compound at 5 µM, replicate 2
[14] = LOPAC1280 primary screen with protease, 5 µM compound, replicate 1
[15] = LOPAC1280 primary screen with protease, 5 µM compound, replicate 2
[16] = sheet LOPAC_screen_w_protease, primary screen of LOPAC1280 at 5 µM with protease, mean of the two replicates
[17] = sheet LOPAC_screen_w_protease, primary screen of LOPAC1280 at 5 µM with protease, replicate 1
[18] = sheet LOPAC_screen_w_protease, primary screen of LOPAC1280 at 5 µM with protease, replicate 2
[19] = sheet LOPAC_screen_w_protease, primary screen at 5 µM, mean of two replicates
[20] = sheet LOPAC_screen_w_protease, primary screen at 5 µM, replicate 1
[21] = sheet LOPAC_screen_w_protease, primary screen at 5 µM, replicate 2
[22] = sheet LOPAC_screen_w_protease, primary screen with protease, mean of two replicates
[23] = sheet LOPAC_screen_w_protease, primary screen with protease, replicate 1
[24] = sheet LOPAC_screen_w_protease, primary screen with protease, replicate 2

SMILES: Cc1cccc(/C=C/c2ccccc2)n1 [SIB 1893]
- mean [1]: 0.4194
- Replicate_1 [2]: 2.242
- Replicate_2 [3]: -1.403

SMILES: O=P(O)(O)C(Cl)(Cl)P(=O)(O)O [Clodronic acid]
- inhibition at 5 µM [4]: 2.04%
- inhibition at 5 µM [5]: 1.36%
- mean (LOPAC_screen_w_protease) [6]: 1.697

SMILES: CCCC(CCC)C(=O)O [Valproic acid sodium]
- inhibition at 5 µM (sheet LOPAC_screen_w_protease, primary screen of LOPAC1280 at 5 µM with protease, mean of the two replicates, read-out: mean): 3.18%
- inhibition at 5 µM (sheet LOPAC_screen_w_protease, primary screen of LOPAC1280 at 5 µM with protease, replicate 1, read-out: Replicate_1): 2.68%
- inhibition at 5 µM (sheet LOPAC_screen_w_protease, primary screen of LOPAC1280 at 5 µM with protease, replicate 2, read-out: Replicate_2): 3.67%

SMILES: c1ccc(C2CC2)c(OCC2=NCCN2)c1 [Cirazoline hydrochloride]
- inhibition at 5 µM [4]: 2.66%
- inhibition at 5 µM [5]: 1%
- mean (LOPAC_screen_w_protease) [7]: 1.832

SMILES: COc1ccc(CN(CCN(C)C)c2ccccn2)cc1 [Pyrilamine maleate]
- inhibition at 5 µM (sheet LOPAC_screen_w_protease, primary screen with protease, mean of two replicates, read-out: mean): 2.44%
- inhibition at 5 µM (sheet LOPAC_screen_w_protease, primary screen with protease, replicate 1, read-out: Replicate_1): 1.24%
- inhibition at 5 µM (sheet LOPAC_screen_w_protease, primary screen with protease, replicate 2, read-out: Replicate_2): 3.63%

SMILES: O=C(O)/C=C1\CCCc2ccccc2C1O (stereo not drawn) [NCS-382]
- mean [8]: 5.8931
- Replicate_1 [9]: 5.187
- Replicate_2 [10]: 6.599

SMILES: Nc1ncnc2c1ncn2[C@@H]1O[C@H](CO)[C@@H](O)[C@H]1O [Adenosine]
- inhibition at 5 µM (read-out: Replicate_1): 1.26%
- inhibition at 5 µM (read-out: Replicate_2): 3.55%
- inhibition at 5 µM (read-out: mean): 2.4%

SMILES: CNc1ncnc2c1ncn2[C@@H]1O[C@H](CO)[C@@H](O)[C@H]1O [N6-Methyladenosine]
- mean [11]: 2.9788
- Replicate_1 [12]: 2.994
- Replicate_2 [13]: 2.964

SMILES: C[N+](C)(C)CCOP(=O)([O-])OP(=O)([O-])OC[C@H]1O[C@@H](n2ccc(N)nc2=O)[C@H](O)[C@@H]1O.[Na+] [Citicoline sodium]
- mean (LOPAC_screen_w_protease) [7]: 2.039
- Replicate_1 (LOPAC_screen_w_protease) [14]: 0.6867
- Replicate_2 (LOPAC_screen_w_protease) [15]: 3.392

SMILES: CCCN(CCC)C1Cc2cc(OC)c(OC)cc2C1.O=C(O)/C=C\C(=O)O [U-99194A maleate]
- mean [1]: -0.07283
- Replicate_1 [2]: -1.037
- Replicate_2 [3]: 0.891

SMILES: CCCCCCCCCCCCCCCCCCOCC(COP(=O)([O-])OCC[N+](C)(C)C)OC (stereo not drawn) [ET-18-OCH3]
- mean (LOPAC_screen_w_protease) [6]: 1.443
- Replicate_1 (LOPAC_screen_w_protease) [14]: 1.735
- Replicate_2 (LOPAC_screen_w_protease) [15]: 1.151

SMILES: N#Cc1c(-c2ccccc2)no[n+]1[O-] [4-Phenyl-3-furoxancarbonitrile]
- mean [11]: 2.827
- Replicate_1 [12]: 3.156
- Replicate_2 [13]: 2.497

SMILES: COc1ccccc1N1CCN(CCN2C(=O)CC3(CCCC3)CC2=O)CC1.Cl.Cl [BMY 7378 dihydrochloride]
- mean [11]: 2.822
- Replicate_1 [12]: 2.1144
- Replicate_2 [13]: 3.53

SMILES: CN[C@@H]1C[C@@H](c2ccc(Cl)c(Cl)c2)c2ccccc21 [Indatraline hydrochloride]
- inhibition at 5 µM [4]: 1.51%
- inhibition at 5 µM [5]: 2.53%
- mean (LOPAC_screen_w_protease) [7]: 2.022

SMILES: COC(=O)[C@@H](N)CCCN=C(N)N[N+](=O)[O-].Cl
- mean [16]: 3.268
- Replicate_1 [17]: 2.366
- Replicate_2 [18]: 4.171

SMILES: O=c1nc2[nH]c3ccccc3nc-2c(=O)[nH]1 [Alloxazine]
- inhibition at 5 µM (sheet LOPAC_screen_w_protease, LOPAC1280 primary screen with protease, 5 µM compound, mean of the two replicates, read-out: mean): 4.73%
- inhibition at 5 µM (sheet LOPAC_screen_w_protease, LOPAC1280 primary screen with protease, 5 µM compound, replicate 1, read-out: Replicate_1): 4.91%
- inhibition at 5 µM (sheet LOPAC_screen_w_protease, LOPAC1280 primary screen with protease, 5 µM compound, replicate 2, read-out: Replicate_2): 4.55%

SMILES: COC(=O)C1=CCCN(C)C1 [Arecoline hydrobromide]
- inhibition at 5 µM [4]: 1.64%
- inhibition at 5 µM [5]: 1.16%
- mean (LOPAC_screen_w_protease) [6]: 1.398

SMILES: NC(=O)COc1c(F)cc(SCCNS(=O)(=O)c2ccccc2)cc1F
- mean (sheet LOPAC_screen_w_protease, LOPAC1280 primary screen at 5 µM, with protease, mean of two replicates): -1.413
- Replicate_1 (sheet LOPAC_screen_w_protease, LOPAC1280 primary screen at 5 µM, with protease, replicate 1): -1.082
- Replicate_2 (sheet LOPAC_screen_w_protease, LOPAC1280 primary screen at 5 µM, with protease, replicate 2): -1.744

SMILES: CC(C)(C)NC[C@H](O)COc1nsnc1N1CCOCC1.O=C(O)/C=C\C(=O)O [S(-)-Timolol maleate]
- mean [1]: 0.01613
- Replicate_1 [2]: 1.756
- Replicate_2 [3]: -1.724

SMILES: O=C(O)c1cc([N+](=O)[O-])ccc1NCCCc1ccccc1
- Replicate_1 (LOPAC screen with protease): 5.784
- Replicate_2 (LOPAC screen with protease): 7.243
- mean (LOPAC screen with protease): 6.5136

SMILES: CC(C)(C)C1(O)CCN2CC3c4ccccc4CCc4cccc(c43)C2C1.Cl (racemic) [(±)-Butaclamol hydrochloride]
- Replicate_1: 4.433
- Replicate_2: 5.727
- mean: 5.08

SMILES: COc1ccccc1N1CCN(CC(O)COc2cccc3ccccc23)CC1.Cl.Cl (stereo not drawn) [Naftopidil dihydrochloride]
- mean [8]: 6.057
- Replicate_1 [9]: 7.362
- Replicate_2 [10]: 4.753

SMILES: NC(Cc1ccc(Cl)cc1)C(=O)O (racemic) [(±)-p-Chlorophenylalanine]
- mean [16]: 3.154
- Replicate_1 [17]: 1.596
- Replicate_2 [18]: 4.711

SMILES: C[N+]1(C)CCN(c2ccccc2)CC1.[I-]
- mean (LOPAC screen with protease) [19]: 7.007
- Replicate_1 (LOPAC screen with protease) [20]: 5.351
- Replicate_2 (LOPAC screen with protease) [21]: 8.6627

SMILES: COc1ccc2c(c1)[C@@]13CCCC[C@H]1[C@@H](C2)NCC3.Cl [3-Methoxy-morphanin hydrochloride]
- Replicate_1: 3.105
- Replicate_2: 3.489
- mean: 3.297

SMILES: CCCCCCCCCCCCCCSCC(=O)O [Tetradecylthioacetic acid]
- inhibition at 5 µM (sheet LOPAC_screen_w_protease, LOPAC1280 primary screen at 5 µM, with protease, mean of two replicates, read-out: mean): -1.74%
- inhibition at 5 µM (sheet LOPAC_screen_w_protease, LOPAC1280 primary screen at 5 µM, with protease, replicate 1, read-out: Replicate_1): -1.66%
- inhibition at 5 µM (sheet LOPAC_screen_w_protease, LOPAC1280 primary screen at 5 µM, with protease, replicate 2, read-out: Replicate_2): -1.82%

SMILES: Cl.NCCS [Cysteamine hydrochloride]
- mean (LOPAC screen with protease) [19]: 8.502
- Replicate_1 (LOPAC screen with protease) [20]: 9.009
- Replicate_2 (LOPAC screen with protease) [21]: 7.996

SMILES: Cc1nc(-c2ccc(-c3ccc(C(=O)N4CCc5cc6c(cc54)C4(CCN(C)CC4)CO6)cc3)c(C)c2)no1.Cl [SB 224289 hydrochloride]
- mean (sheet LOPAC_screen_w_protease, LOPAC1280 at 5 µM, mean of two replicates): 1.002
- Replicate_1 (sheet LOPAC_screen_w_protease, LOPAC1280 at 5 µM, replicate 1): 2.397
- Replicate_2 (sheet LOPAC_screen_w_protease, LOPAC1280 at 5 µM, replicate 2): -0.3926

SMILES: CCN(CCCl)Cc1ccccc1Br.Cl [DSP-4 hydrochloride]
- mean [8]: 6.32
- Replicate_1 [9]: 6.498
- Replicate_2 [10]: 6.142

SMILES: COc1cc(CC(C)N)c(OC)cc1I.Cl (racemic) [(±)-DOI hydrochloride]
- Replicate_1: 4.323
- Replicate_2: 2.796
- mean: 3.56

SMILES: Clc1cnc(Oc2ccc(Oc3ncc(Cl)cc3Cl)cc2)c(Cl)c1 [TCPOBOP]
- mean [22]: 2.32
- Replicate_1 [23]: 5.456
- Replicate_2 [24]: -0.8151

SMILES: COc1cccc(OC)c1OCCNCC1COc2ccccc2O1.Cl (stereo not drawn) [WB-4101 hydrochloride]
- mean (LOPAC_screen_w_protease) [6]: 1.343
- Replicate_1 (LOPAC_screen_w_protease) [14]: 1.824
- Replicate_2 (LOPAC_screen_w_protease) [15]: 0.8625

SMILES: CCCCCCCCCCCCCC(=O)O[C@@H]1[C@@H](C)[C@@]2(O)[C@@H](C=C(CO)C[C@]3(O)C(=O)C(C)=C[C@@H]23)[C@@H]2C(C)(C)[C@]12OC(C)=O [Phorbol 12-myristate 13-acetate]
- inhibition at 5 µM (read-out: Replicate_1): 1.97%
- inhibition at 5 µM (read-out: Replicate_2): -0.596%
- inhibition at 5 µM (read-out: mean): 0.686%

SMILES: Brc1c(NC2=NCCN2)ccc2nccnc12 [UK 14,304]
- Replicate_1 (LOPAC_screen_w_protease): 1.98
- Replicate_2 (LOPAC_screen_w_protease): 2.1604
- mean (LOPAC_screen_w_protease): 2.07

SMILES: C1CCc2nnnn2CC1 [Pentylenetetrazole]
- inhibition at 5 µM [4]: 0.452%
- inhibition at 5 µM [5]: 2.75%
- mean (LOPAC_screen_w_protease) [6]: 1.601

SMILES: N#CC(C#N)=Cc1ccc([N+](=O)[O-])c(O)c1 [Tyrphostin AG 126]
- mean [22]: 2.288
- Replicate_1 [23]: 2.273
- Replicate_2 [24]: 2.303

SMILES: CC(C)[C@@]1(NC(=O)[C@@H]2C[C@@H]3c4cccc5[nH]cc(c45)C[C@H]3N(C)C2)O[C@@]2(O)[C@@H]3CCCN3C(=O)[C@H](Cc3ccccc3)N2C1=O.CS(=O)(=O)O [Dihydroergocristine methanesulfonate]
- mean [11]: 2.761
- Replicate_1 [12]: 2.962
- Replicate_2 [13]: 2.561
